Experimental data taken from patent US10590129B2 (Incozen Therapeutics Pvt. Ltd., priority 2010, dated 2020).
Blank lines part the entries; values can stand above or below the compound they belong to.

Tests used:
MKN-45 cells = experiment: Inhibition of MKN-45 proliferation (MTT); assay type: cell-based, human; details: for GI50 / inhibition at 0.1 µM / inhibition at 1 µM: Homo sapiens, MKN-45, MKN-45 proliferation
Outline: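 High-Met human gastric adenocarcinoma MKN-45 cells plated in complete growth medium, compounds added next day and viability read 3 days later by MTT dye reduction.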

c-Met [1] = biological target: T1, c-Met (Homo sapiens, UniProt P08581); experiment: Inhibition of c-Met kinase phosphorylation in MKN-45 cells (cell based ELISA); parameters: endogenous in cells; host or cells: MKN-45; details: 1 h
T1 sequence (P08581 25-1390): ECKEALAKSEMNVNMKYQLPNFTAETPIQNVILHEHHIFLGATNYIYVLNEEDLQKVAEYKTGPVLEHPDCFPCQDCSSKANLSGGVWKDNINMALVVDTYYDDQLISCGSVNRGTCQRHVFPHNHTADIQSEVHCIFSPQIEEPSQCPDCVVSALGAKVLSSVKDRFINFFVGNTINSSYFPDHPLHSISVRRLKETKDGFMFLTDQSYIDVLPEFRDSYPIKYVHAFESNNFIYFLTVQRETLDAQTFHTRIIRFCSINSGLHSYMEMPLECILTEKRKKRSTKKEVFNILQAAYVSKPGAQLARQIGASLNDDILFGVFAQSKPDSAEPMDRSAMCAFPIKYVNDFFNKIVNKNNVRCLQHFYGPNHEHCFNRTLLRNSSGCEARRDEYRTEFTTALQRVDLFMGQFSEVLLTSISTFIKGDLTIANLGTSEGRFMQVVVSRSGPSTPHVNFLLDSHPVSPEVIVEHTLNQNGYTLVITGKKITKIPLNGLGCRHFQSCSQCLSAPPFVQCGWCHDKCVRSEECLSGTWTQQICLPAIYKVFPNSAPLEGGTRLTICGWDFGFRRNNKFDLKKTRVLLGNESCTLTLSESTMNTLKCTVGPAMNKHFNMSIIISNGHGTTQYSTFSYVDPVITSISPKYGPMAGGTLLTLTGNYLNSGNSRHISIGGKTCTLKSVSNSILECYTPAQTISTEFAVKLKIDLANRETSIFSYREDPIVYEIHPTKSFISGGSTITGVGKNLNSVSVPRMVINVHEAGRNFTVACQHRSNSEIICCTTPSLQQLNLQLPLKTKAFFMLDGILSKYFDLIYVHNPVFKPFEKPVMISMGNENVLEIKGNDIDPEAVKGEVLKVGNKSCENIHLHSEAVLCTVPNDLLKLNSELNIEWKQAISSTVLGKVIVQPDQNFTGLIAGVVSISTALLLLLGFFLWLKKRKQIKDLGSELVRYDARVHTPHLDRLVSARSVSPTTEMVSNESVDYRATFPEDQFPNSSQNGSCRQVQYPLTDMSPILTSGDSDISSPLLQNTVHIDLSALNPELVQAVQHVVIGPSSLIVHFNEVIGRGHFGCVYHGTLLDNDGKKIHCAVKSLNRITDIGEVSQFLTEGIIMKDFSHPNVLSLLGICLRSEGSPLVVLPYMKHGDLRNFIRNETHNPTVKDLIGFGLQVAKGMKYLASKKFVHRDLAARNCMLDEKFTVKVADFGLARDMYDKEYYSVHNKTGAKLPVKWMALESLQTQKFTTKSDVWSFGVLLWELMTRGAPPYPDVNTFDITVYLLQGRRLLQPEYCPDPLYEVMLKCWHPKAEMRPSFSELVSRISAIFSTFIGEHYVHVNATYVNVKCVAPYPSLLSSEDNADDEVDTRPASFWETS
Protocol: Inhibition of c-Met Kinase Phosphorylation in MKN-45 Cells:
MKN45 cells are a prototype of “c-Met addicted” cells having constitutively activated c-Met kinase similar to that observed in sub-sects of gastric or hepatocellular cancer patients with dysregulated c-Met kinase activity. Inhibition of Met phosphorylation was determined using a cell based ELISA assay according to the following schedule:
Day 1: MKN-45 cells were plated in 96-well plates in complete growth medium.
Day 2: Inhibitors at the desired concentration were added to the plates and incubated for 1 h and lysed subsequently.
Lysates were transferred to NUNC Maxisorp plates coated with anti-cMet receptor antibody. Phopho-tyrosine mAb and HRP-lined anti-mouse IgG were used as primary and secondary antibodies respectively. Optical density was measured on a microplate reader (BMG Labtech., Germany) at […]. Inhibition of c-Met phosphorylation in this cell line indicates a therapeutic potential for test compounds in patients diagnosed with cancers caused by aberrant c-Met kinase signalling.

Met kinase = Met kinase (Homo sapiens, UniProt P08581); experiment: MET kinase assay (colorimetric determination of c-Met kinase activity, HTScan Met Kinase Assay Kit); assay type: biochemical; parameters: purchased Cell Signalling Technology, Beverly, Mass; details: for IC50: c-Met kinase
Chain of Met kinase (P08581 25-1390): as above
Description: 1. MET Kinase Assay Protocol:
Colorimetric Determination of c-Met Kinase Activity
The receptor tyrosine kinase c-Met is a heterodimeric transmembrane glycoprotein involved in several cellular processes that aid in tumor progression. Phosphorylation of the tyrosine residues in the c-Met kinase domain is critical for its activity and the resulting down-stream effects. The colorimetric assay allows detection of the phosphorylated form of a biotinylated peptide upon activation of human recombinant Met kinase.
MET Kinase Assay Protocol:
c-Met Kinase activity shall be determined using an HTScan® Met Kinase Assay Kit (Cell Signalling Technology, Beverly, Mass.) with modifications. All incubations are carried out at room temperature. Briefly, 12.5 μl of a 4× reaction cocktail (DTT/Kinase buffer containing appropriate quantity of human Met kinase) is added to each well of a 96-well plate containing 12.5 μl pre-diluted compound of interest and incubated for 5 minutes. After the initial incubation, 25 μl/well of 2×ATP/biotinylated peptide is added and incubated for an additional 30 minutes. The reaction is terminated by the addition of 50 μl/well stop buffer (50 mM EDTA, pH 8.0). The reaction mixture (25 μl/well) is then transferred to a streptavidin coated plate (Perkin Elmer, Cat#4009-0010) containing 75 μl dH2O and incubated for 60 minutes. The plate is washed with 200 μl/well wash buffer (1×PBS, 0.05% Tween-20). After washing, 100 μl/well phospho-tyrosine mAb (1:1000 in wash buffer containing 1% BSA) is added and incubated for 60 minutes. After another round of washes, 100 μl/well europium labelled anti-mouse IgG (1:500 in wash buffer containing 1% BSA) is added and incubated for an additional 30 minutes. Following additional washes, 100 μl/well Delfia® enhancement solution (Perkin Elmer, Cat#1244-105) is added and incubated for 45 minutes. Florescence is measured on a microplate reader (BMG Labtech., Germany) at 340 nm (excitation) and 615 nm (emission) for calculating % inhibition. Data generated can be analyzed further using Graphpad Prism (Graphpad software, San Diego Calif.) for determination of IC50.

c-Met [2] = biological target: T1, c-Met; experiment: Inhibition of c-Met kinase phosphorylation in NCI-H441 cells (cell based ELISA); parameters: endogenous in cells; host or cells: NCI-H441; details: 1 h
Protocol: Inhibition of c-Met Kinase Phosphorylation in NCI—H441 Cells:
Inhibition of Met phosphorylation was determined using a cell based ELISA assay according to the following schedule:
Day 1: NCI—H441 cells were plated in 96-well plates in complete growth medium.
Day 2: Inhibitors at the desired concentration were added to the plates, incubated for 1 h and lysed subsequently. Lysates were transferred to NUNC Maxisorp plates coated with anti-cMet receptor antibody. Phopho-tyrosine mAb and HRP-lined anti-mouse IgG were used as primary and secondary antibodies respectively. Optical density was measured on a microplate reader (BMG Labtech., Germany) at […].

Compound: CCNC(=O)c1ccc(-c2ccc3nnn(Cc4ccc5ncccc5c4)c3n2)cc1F [Ex43]
GI50 (MKN-45 cells): ≤ 50 nM
IC50 (c-Met [1]): 50 to 150 nM

Compound: COc1cccc(-c2ccc3nnn(Cc4ccc5ncccc5c4)c3n2)c1 [Ex 2, 6-((5-(3-Methoxyphenyl)-3H-[1,2,3]triazolo[4,5-b]pyridin-3-yl)methyl)quinoline]
GI50 (MKN-45 cells): > 1000 nM
melting point: 133 to 135 °C
inhibition at 1 µM (Met kinase): 75 to 100%
IC50 (Met kinase): 50 to 100 nM

Compound: OCc1ccc(-c2ccc3nnn(Cc4ccc5ncccc5c4)c3n2)cc1 [Ex 6, (4-(3-(quinolin-6-ylmethyl)-3H-[1,2,3]triazolo[4,5-b]pyridin-5-yl)phenyl)methanol]
GI50 (MKN-45 cells): 150 to 500 nM
melting point: 187 to 189 °C
inhibition at 1 µM (Met kinase): 75 to 100%
IC50 (Met kinase): 50 to 100 nM

Compound: O=C(O)c1ccc(-c2ccc3nnn(Cc4ccc5ncccc5c4)c3n2)cc1 [Ex 8, 4-(3-(quinolin-6-ylmethyl)-3H-[1,2,3]triazolo[4,5-b]pyridin-5-yl)benzoic acid]
GI50 (MKN-45 cells): > 1000 nM
melting point: 245 to 247 °C
inhibition at 1 µM (Met kinase): 75 to 100%
IC50 (Met kinase): 50 to 100 nM

Compound: CNC(=O)c1ccc(-c2ccc3nnn(Cc4ccc5ncccc5c4)c3n2)cc1 [Ex 9, N-Methyl-4-(3-(quinolin-6-ylmethyl)-3H-[1,2,3]triazolo[4,5-b]pyridin-5-yl)benzamide]
GI50 (MKN-45 cells): 50 to 150 nM
melting point: 220 to 222 °C
IC50 (c-Met [1]): 50 to 150 nM
inhibition at 1 µM (Met kinase): 75 to 100%
IC50 (Met kinase): 50 to 100 nM

Compound: O=C(O)c1ccc(-c2ccc3nnn(Cc4ccc5ncccc5c4)c3n2)cc1F [Ex 13, 2-Fluoro-4-(3-(quinolin-6-ylmethyl)-3H-[1,2,3]triazolo[4,5-b]pyridin-5-yl)benzoic acid]
melting point: 254 to 257 °C
inhibition at 1 µM (Met kinase): 75 to 100%
IC50 (Met kinase): 50 to 100 nM

Compound: OCc1ccc(-c2ccc3nnn(Cc4ccc5ncccc5c4)c3n2)cc1F [Ex 16, (2-Fluoro-4-(3-(quinolin-6-ylmethyl)-3H-[1,2,3]triazolo[4,5-b]pyridin-5-yl)phenyl)methanol]
GI50 (MKN-45 cells): ≤ 50 nM
melting point: 202 to 204 °C
IC50 (c-Met [1]): ≤ 50 nM
inhibition at 1 µM (Met kinase): 75 to 100%
IC50 (Met kinase): 50 to 100 nM

Compound: NC(=O)c1ccc(-c2ccc3nnn(Cc4ccc5ncccc5c4)c3n2)cc1 [Ex 21, 4-(3-(quinolin-6-ylmethyl)-3H-[1,2,3]triazolo[4,5-b]pyridin-5-yl)benzamide]
GI50 (MKN-45 cells): 150 to 500 nM
melting point: 229 to 231 °C
inhibition at 1 µM (Met kinase): 50 to 75%
IC50 (Met kinase): 250 to 1000 nM

Compound: O=C(NC1CC1)c1ccc(-c2ccc3nnn(Cc4ccc5ncccc5c4)c3n2)cc1F [Ex 46, N-Cyclopropyl-2-fluoro-4-(3-(quinolin-6-ylmethyl)-3H-[1,2,3]triazolo[4,5-b]pyridin-5-yl)benzamide]
GI50 (MKN-45 cells): ≤ 50 nM
IC50 (c-Met [1]): 50 to 150 nM

Compound: NC(=O)c1ccc(-c2ccc3nnn(Cc4cc5cccnc5cc4F)c3n2)cc1F [Ex 137, 2-Fluoro-4-(3-((7-fluoroquinolin-6-yl)methyl)-3H-[1,2,3]triazolo[4,5-b]pyridin-5-yl)benzamide]
GI50 (MKN-45 cells): ≤ 50 nM
inhibition at 0.1 µM (MKN-45 cells; 0.1 μM): 75 to 100%
% inhibition @ 1 uM (MKN-45 cells; MKN-45 proliferation, 1 μM): B (B = ≥50-<75%)
IC50 (c-Met [1]): ≤ 50 nM
IC50 (c-Met [2]): ≤ 10 nM
inhibition at 1 µM (Met kinase): 75 to 100%
IC50 (Met kinase): ≤ 50 nM

Compound: Cl.NC(=O)c1c(F)cc(-c2ccc3nnn(Cc4ccc5ncccc5c4)c3n2)cc1F [Ex 139, 2,6-Difluoro-4-(3-(quinolin-6-ylmethyl)-3H-[1,2,3]triazolo[4,5-b]pyridin-5-yl)benzamide hydrochloride]
inhibition at 1 µM (MKN-45 cells; 1 μM): < 25%
Inhibition (% Inhibition of MKN-45 proliferation) (MKN-45 cells; MKN-45 proliferation, 0.1 μM): B (B = ≥50-<75%)
IC50 (c-Met [2]): ≤ 10 nM

Compound: CC(c1ccc2ncccc2c1)n1nnc2ccc(-c3cnn(CCO)c3)nc21 (centres unmarked) [Ex 164, 2-(4-(3-(1-(Quinolin-6-yl)ethyl)-3H-[1,2,3]triazolo[4,5-b]pyridin-5-yl)-1H-pyrazol-1-yl)ethanol]
GI50 (MKN-45 cells): 50 to 150 nM
melting point: 188 to 191 °C
IC50 (c-Met [1]): 50 to 150 nM

Compound: CCc1n[nH]c2cc(-c3ccc4nnn(Cc5ccc6ncccc6c5)c4n3)ccc12 [Ex 191, 6-((5-(3-ethyl-1H-indazol-6-yl)-3H-[1,2,3]triazolo[4,5-b]pyridin-3-yl)methyl)quinoline]
inhibition at 0.1 µM (MKN-45 cells; 0.1 μM): 25 to 50%
inhibition at 1 µM (MKN-45 cells; 1 μM): 25 to 50%
melting point: 211 to 213 °C

Compound: Cc1csc(-c2ccc3nnn(Cc4ccc5ncccc5c4)c3n2)c1 [Ex 193, 6-((5-(4-Methylthiophen-2-yl)-3H-[1,2,3]triazolo[4,5-b]pyridin-3-yl)methyl)quinoline]
inhibition at 0.1 µM (MKN-45 cells; 0.1 μM): < 25%
inhibition at 1 µM (MKN-45 cells; 1 μM): 50 to 75%
melting point: 153 to 156 °C

Further lines, with some results ahead:

melting point: 154 to 156 °C
Compound: Cc1ccc(-c2ccc3nnn(Cc4ccc5ncccc5c4)c3n2)s1 [Ex 194, 6-((5-(5-Methylthiophen-2-yl)-3H-[1,2,3]triazolo[4,5-b]pyridin-3-yl)methyl)quinoline]
inhibition at 0.1 µM (MKN-45 cells; 0.1 μM): < 25%
inhibition at 1 µM (MKN-45 cells; 1 μM): 50 to 75%

melting point: 183 to 185 °C
Compound: c1cnc2ccc(Cn3nnc4ccc(-c5ccc(N6CCOCC6)nc5)nc43)cc2c1 [Ex 195, 4-(5-(3-(Quinolin-6-ylmethyl)-3H-[1,2,3]triazolo[4,5-b]pyridin-5-yl)pyridin-2-yl)morpholine]
inhibition at 0.1 µM (MKN-45 cells; 0.1 μM): 25 to 50%
inhibition at 1 µM (MKN-45 cells; 1 μM): 50 to 75%

melting point: 133 to 135 °C
Compound: c1cnc2ccc(Cn3nnc4ccc(-c5ccc(N6CCCCC6)nc5)nc43)cc2c1 [Ex 196, 6-((5-(6-(Piperidin-1-yl)pyridin-3-yl)-3H-[1,2,3]triazolo[4,5-b]pyridin-3-yl)methyl)quinoline]
inhibition at 0.1 µM (MKN-45 cells; 0.1 μM): < 25%
inhibition at 1 µM (MKN-45 cells; 1 μM): < 25%

melting point: 132 to 134 °C
Compound: CCn1cc(-c2ccc3nnn(Cc4ccc5ncccc5c4)c3n2)cn1 [Ex 197, 6-((5-(1-Ethyl-1H-pyrazol-4-yl)-3H-[1,2,3]triazolo[4,5-b]pyridin-3-yl)methyl)quinoline]
inhibition at 0.1 µM (MKN-45 cells; 0.1 μM): 25 to 50%

melting point: 126 to 128 °C
Compound: CC(C)n1cc(-c2ccc3nnn(Cc4ccc5ncccc5c4)c3n2)cn1 [Ex 198, 6-((5-(1-Isopropyl-1H-pyrazol-4-yl)-3H-[1,2,3]triazolo[4,5-b]pyridin-3-yl)methyl)quinoline]
inhibition at 0.1 µM (MKN-45 cells; 0.1 μM): < 25%

melting point: 160 to 163 °C
Compound: CC(C)Cn1cc(-c2ccc3nnn(Cc4ccc5ncccc5c4)c3n2)cn1 [Ex 199, 6-((5-(1-Isobutyl-1H-pyrazol-4-yl)-3H-[1,2,3]triazolo[4,5-b]pyridin-3-yl)methyl)quinoline]
inhibition at 0.1 µM (MKN-45 cells; 0.1 μM): < 25%

GI50 (MKN-45 cells): ≤ 50 nM
inhibition at 1 µM (Met kinase): 75 to 100%
IC50 (Met kinase): 50 to 100 nM
Compound: C[C@@H](c1ccc2ncccc2c1)n1nnc2ccc(-c3ccc(C(N)=O)c(Cl)c3)nc21 [Ex 221, (−)-2-chloro-4-(3-(1-(quinolin-6-yl)ethyl)-3H-[1,2,3]triazolo[4,5-b]pyridin-5-yl) benzamide]
inhibition at 0.1 µM (MKN-45 cells; 0.1 μM): 50 to 75%

inhibition at 1 µM (Met kinase): 50 to 75%
IC50 (Met kinase): 250 to 1000 nM
Compound: C[C@H](c1ccc2ncccc2c1)n1nnc2ccc(-c3ccc(C(N)=O)c(Cl)c3)nc21 [Ex 222, (+)-2-chloro-4-(3-(1-(quinolin-6-yl)ethyl)-3H-[1,2,3]triazolo[4,5-b]pyridin-5-yl) benzamide]
inhibition at 0.1 µM (MKN-45 cells; 0.1 μM): 25 to 50%
